Literature values as cited in US6903136B2, “Food supplements containing 4-hydroxyisoleucine and creatine” (Experimental and Applied Sciences, Inc., priority 2002, dated 2005).

Assays:
[1] = test system: insulinotropic activity
[2] = test system: secretion of insulin; settings: in vitro
[3] = test system: insulinotropic activity; settings: normal and diabetic rats; intravenous and oral delivery

Compound | activity as an insulinotropic agent [1] | activity as an insulinotropic agent relative to leucine, isoleucine, or homoserine ([1]; fold more active than leucine, isoleucine, or homoserine) | effect on secretion of insulin ([2]; normal blood glucose levels) | insulinotropic activity ([2]; supranormal glucose levels) | insulinotropic activity in vivo [3]
C[C@@H]([C@H](C)O)[C@H](N)C(=O)O (single isomer, unassigned) [(2S, 3R, 4S) stereoisomer of 4OH-Ile] | active | at least 15 × | – | – | –
CC(O)C(C)C(N)C(=O)O (single isomer, unassigned) [(2R, 3R, 4S) isomer] | inactive | – | – | – | –
CC1OC(=O)C(N)C1C (stereo not shown) [lactone form of 4OH-Ile] | not active | – | – | – | –
CC(O)[C@H](C)[C@H](N)C(=O)O (stereo partly shown) [Example 4OH-Ile, 4-Hydroxyisoleucine] | – | – | does not affect the secretion of insulin | strong insulinotropic activity | verified the insulinotropic activity in vivo
